What all share (test): relative viability (nuclei count vs DMSO), 5 days (fraction); higher = more cells survive
Compound in the test “CAP-232 + Bortezomib”: C[C@H]([C@@H](C(=O)N)NC(=O)[C@@H]1CSSC[C@@H](C(=O)N[C@H](C(=O)N[C@@H](C(=O)N[C@H](C(=O)N1)CCCCN)CC2=CNC3=CC=CC=C32)CC4=CC=C(C=C4)O)NC(=O)[C@@H](CC5=CC=CC=C5)N)O [CAP-232] + CC(C)C[C@H](NC(=O)[C@H](Cc1ccccc1)NC(=O)c1cnccn1)B(O)O [Bortezomib] (partner 0.002 µM)
In short, it runs like this: (§1)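 Values are medians from duplicate plates. Each reflects relative viability, defined as the nuclei count of treated wells over that of vehicle wells. Lung cancer cell lines in 1536-well plates were pin-tool dosed one day after seeding with one drug alone or with a fixed anchor-drug dose plus five library-drug doses (not always all listed) in √10 steps, then fixed, stained and imaged at 4× after 5 days.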

Compound in the test “CAP-232 + OSI-027”: C[C@H]([C@@H](C(=O)N)NC(=O)[C@@H]1CSSC[C@@H](C(=O)N[C@H](C(=O)N[C@@H](C(=O)N[C@H](C(=O)N1)CCCCN)CC2=CNC3=CC=CC=C32)CC4=CC=C(C=C4)O)NC(=O)[C@@H](CC5=CC=CC=C5)N)O [CAP-232] + COc1cccc2cc(-c3nc([C@H]4CC[C@H](C(=O)O)CC4)n4ncnc(N)c34)[nH]c12 [OSI-027] (partner 0.5 µM)
In short, it runs like this:
as §1

Compound in the test “CAP-232 + Crizotinib”: C[C@H]([C@@H](C(=O)N)NC(=O)[C@@H]1CSSC[C@@H](C(=O)N[C@H](C(=O)N[C@@H](C(=O)N[C@H](C(=O)N1)CCCCN)CC2=CNC3=CC=CC=C32)CC4=CC=C(C=C4)O)NC(=O)[C@@H](CC5=CC=CC=C5)N)O [CAP-232] + C[C@@H](Oc1cc(-c2cnn(C3CCNCC3)c2)cnc1N)c1c(Cl)ccc(F)c1Cl [Crizotinib] (partner 1 µM)
In short, it runs like this: as §1

Compound in the test “CAP-232 + Pemetrexed”: C[C@H]([C@@H](C(=O)N)NC(=O)[C@@H]1CSSC[C@@H](C(=O)N[C@H](C(=O)N[C@@H](C(=O)N[C@H](C(=O)N1)CCCCN)CC2=CNC3=CC=CC=C32)CC4=CC=C(C=C4)O)NC(=O)[C@@H](CC5=CC=CC=C5)N)O [CAP-232] + Nc1nc2[nH]cc(CCc3ccc(C(=O)N[C@@H](CCC(=O)O)C(=O)O)cc3)c2c(=O)[nH]1 [Pemetrexed] (partner 0.2 µM)
In short, it runs like this:
as §1

Compound in the test “CAP-232 + Decitabine”: C[C@H]([C@@H](C(=O)N)NC(=O)[C@@H]1CSSC[C@@H](C(=O)N[C@H](C(=O)N[C@@H](C(=O)N[C@H](C(=O)N1)CCCCN)CC2=CNC3=CC=CC=C32)CC4=CC=C(C=C4)O)NC(=O)[C@@H](CC5=CC=CC=C5)N)O [CAP-232] + Nc1ncn([C@H]2C[C@H](O)[C@@H](CO)O2)c(=O)n1 [Decitabine] (partner 2 µM)
In short, it runs like this:
as §1

201T: the relative viability with CAP-232 + Bortezomib (first compound 0.4 µM) is 1.17; in the test with CAP-232 + Bortezomib (first compound 1.265 µM), 1.04; with CAP-232 + Bortezomib (first compound 4 µM), 1.05; with CAP-232 + Bortezomib (first compound 12.65 µM) it was 1.1; with CAP-232 + OSI-027 (first compound 0.4 µM), 0.749; with CAP-232 + OSI-027 (first compound 1.265 µM), 0.669. In addition, the relative viability was found to be 0.722 in the test with CAP-232 + OSI-027 (first compound 4 µM); 0.549 with CAP-232 + OSI-027 (first compound 12.65 µM); 1.13 in the test with CAP-232 + Crizotinib (first compound 0.4 µM); 1.02 in the test with CAP-232 + Crizotinib (first compound 1.265 µM); 1.04 with CAP-232 + Crizotinib (first compound 4 µM); 1.04 with CAP-232 + Crizotinib (first compound 12.65 µM). Further, the relative viability was 0.341 with CAP-232 + Pemetrexed (first compound 0.4 µM); 0.332 in the test with CAP-232 + Pemetrexed (first compound 1.265 µM); 0.356 with CAP-232 + Pemetrexed (first compound 4 µM); 0.303 in the test with CAP-232 + Pemetrexed (first compound 12.65 µM); 0.842 with CAP-232 + Decitabine (first compound 0.4 µM); 0.844 with CAP-232 + Decitabine (first compound 1.265 µM). Also, the relative viability came out at 0.817 in the test with CAP-232 + Decitabine (first compound 4 µM) and 0.849 in the test with CAP-232 + Decitabine (first compound 12.65 µM).
As to A549, the relative viability worked out at 0.86 in the test with CAP-232 + Crizotinib (first compound 0.4 µM); 0.734 with CAP-232 + Crizotinib (first compound 1.265 µM); 0.871 with CAP-232 + Crizotinib (first compound 4 µM); 0.251 with CAP-232 + Crizotinib (first compound 12.65 µM); 0.267 in the test with CAP-232 + Decitabine (first compound 0.4 µM); 0.212 with CAP-232 + Decitabine (first compound 1.265 µM). The relative viability in the test with CAP-232 + Decitabine (first compound 4 µM) amounted to 0.33; with CAP-232 + Decitabine (first compound 12.65 µM), 0.239.
Take A-427: the relative viability came to 1.21 with CAP-232 + Bortezomib (first compound 0.4 µM); 0.972 with CAP-232 + Bortezomib (first compound 1.265 µM); 0.993 with CAP-232 + Bortezomib (first compound 4 µM); 0.964 with CAP-232 + Bortezomib (first compound 12.65 µM); 0.306 with CAP-232 + OSI-027 (first compound 0.4 µM); 0.458 with CAP-232 + OSI-027 (first compound 1.265 µM). Further, the relative viability with CAP-232 + OSI-027 (first compound 4 µM) came out at 0.494; with CAP-232 + OSI-027 (first compound 12.65 µM), 0.612; with CAP-232 + Crizotinib (first compound 0.4 µM) it was 0.881; with CAP-232 + Crizotinib (first compound 1.265 µM), 0.913; with CAP-232 + Crizotinib (first compound 4 µM) it was 0.908; in the test with CAP-232 + Crizotinib (first compound 12.65 µM), 0.93. Moreover, the relative viability is 1.22 with CAP-232 + Pemetrexed (first compound 0.4 µM); 0.923 with CAP-232 + Pemetrexed (first compound 1.265 µM); 0.974 with CAP-232 + Pemetrexed (first compound 4 µM); 0.924 with CAP-232 + Pemetrexed (first compound 12.65 µM); 0.578 with CAP-232 + Decitabine (first compound 0.4 µM); 0.556 with CAP-232 + Decitabine (first compound 1.265 µM). Besides, the figures for the relative viability with CAP-232 + Decitabine (first compound 4 µM) and in the test with CAP-232 + Decitabine (first compound 12.65 µM) were 0.599 and 0.56, respectively.
For the cell line ABC-1, the relative viability came to 0.296 with CAP-232 + Bortezomib (first compound 0.4 µM); 0.306 with CAP-232 + Bortezomib (first compound 1.265 µM); 0.222 with CAP-232 + Bortezomib (first compound 4 µM); 0.264 in the test with CAP-232 + Bortezomib (first compound 12.65 µM); 0.455 with CAP-232 + OSI-027 (first compound 0.4 µM); 0.421 with CAP-232 + OSI-027 (first compound 1.265 µM). For the same cell line, the relative viability in the test with CAP-232 + OSI-027 (first compound 4 µM) turned out to be 0.481; in the test with CAP-232 + OSI-027 (first compound 12.65 µM) it was 0.271; with CAP-232 + Crizotinib (first compound 0.4 µM), 1.01; in the test with CAP-232 + Crizotinib (first compound 1.265 µM) it was 1.17; with CAP-232 + Crizotinib (first compound 4 µM), 1.08; with CAP-232 + Crizotinib (first compound 12.65 µM), 0.903. Besides, the relative viability with CAP-232 + Decitabine (first compound 0.4 µM) stood at 1.05; in the test with CAP-232 + Decitabine (first compound 4 µM) it was 0.984; in the test with CAP-232 + Decitabine (first compound 12.65 µM) it was 0.887.
Take CAL-12T: the relative viability with CAP-232 + Bortezomib (first compound 0.4 µM) is 1.21; in the test with CAP-232 + Bortezomib (first compound 1.265 µM) it was 0.939; in the test with CAP-232 + Bortezomib (first compound 4 µM), 0.91; in the test with CAP-232 + Bortezomib (first compound 12.65 µM), 0.477; in the test with CAP-232 + OSI-027 (first compound 0.4 µM), 0.611; in the test with CAP-232 + OSI-027 (first compound 1.265 µM) it was 0.556. Further, the relative viability in the test with CAP-232 + OSI-027 (first compound 4 µM) was determined as 0.585; with CAP-232 + OSI-027 (first compound 12.65 µM), 0.298; in the test with CAP-232 + Crizotinib (first compound 0.4 µM), 0.531; in the test with CAP-232 + Crizotinib (first compound 1.265 µM), 0.703; in the test with CAP-232 + Crizotinib (first compound 4 µM) it was 0.657; with CAP-232 + Crizotinib (first compound 12.65 µM), 0.739. For the same cell line, the relative viability was 0.929 in the test with CAP-232 + Pemetrexed (first compound 0.4 µM), 1.26 in the test with CAP-232 + Pemetrexed (first compound 1.265 µM), 1.16 with CAP-232 + Pemetrexed (first compound 4 µM) and 1.1 with CAP-232 + Pemetrexed (first compound 12.65 µM).

Values taken from the supplement of paper PMC10307832.
